Where two headings read alike, the source gives them in different places.
Legend:
[1] = tested on: Salmonella typhimurium strains TA97a, TA98, TA100, and TA102
Experimental: (§1) In the preincubation experiment, test compounds and mutagen, each having a volume of 0.1 mL of varying concentrations, were preincubated at 37°C for 30 min and then 0.1 mL of 1 × 10^7 CFU/mL density of the bacterial culture was added, followed by the addition of 2.5 mL of top agar at 45°C (containing 0.5% NaCl and 0.6% agar) supplemented with 0.5 mM histidine-biotin. […] The combined solutions were vortexed and poured onto minimal glucose plates (40% glucose solution and Vogel Bonner medium). The plates were incubated at 37°C for 48 h and the numbers of histidine-independent revertants colonies were scored.
(§2) Survival of the bacteria was routinely monitored for each experiment. Parallel controls were run with compounds alone at all concentrations to test the possible toxicity. The concentrations of the test samples for investigating the antimutagenicity were 50, 100, 200, and 500 μM. […] All the test samples and mutagens were dissolved in DMSO (final conc., 0.01%). […] Plates were set up in triplicate for each concentration and the entire experiment was repeated three times. Inhibition of mutagenicity was expressed as percentage decrease of reverse mutation and calculated as (1) Percent inhibition=[(a−b)/(a−c)]×100, where a = number of histidine revertants induced by mutagen, b = number of histidine revertants induced by mutagen in the presence of test compound, and c = number of revertants induced in negative control.

[2] = tested on: Salmonella typhimurium TA102; details: 250 µM
Experimental: as §1, §2

[3] = tested on: BP-induced DNA adducts (rat liver microsomes, st-DNA); experiment: Microsomal BP-DNA adducts, 32P-postlabeling; format: biochemical; details: for BP-induced DNA adducts: BP 1 μM, rat liver microsomes, st-DNA; for inhibition of BP-induced DNA adducts: 40 μM, BP with rat liver microsomes, cofactors
Experimental: st-DNA (300 μg/mL) was preincubated with 50 mM Tris-HCl (pH 7.5), 1 mM MgCl2, 2.5 mM glucose-6-phosphate, 1 U/mL G6PDH, 0.5 mM NADP+, and α-naphthoflavone-induced rat liver microsomal proteins (1 mg/mL) in 1 mL for 10 min, in the presence of vehicle alone and PC and EA at 20 and 40 μM. […] The incubation was continued for another 30 min at 37°C and then reaction was terminated by the addition of EDTA and centrifugation (9,000 g; 10 min). DNA was isolated from the supernatant by removal of RNA and proteins by digestions with RNases A and T1 and proteinase K and a series of extractions with phenol, phenol: Sevag (chloroform : isoamyl alcohol, 24 : 1), and Sevag, followed by precipitation of the DNA with ethanol. The DNA concentration was estimated spectrophotometrically.
DNA adducts were analyzed by ^32P-postlabeling as described earlier. Briefly, 10 μg of DNA was digested with micrococcal nuclease and spleen phosphodiesterase (MN/SPD). Before further treatment with nuclease P1 to enrich DNA adducts, an aliquot was removed for evaluation of normal nucleotide levels. DNA adducts and normal nucleotides were labelled with [γ-^32P]ATP and T4 polynucleotide kinase. Labelled adducts were separated by multidirectional polyethyleneimine (PEI)-cellulose TLC using the following solvents: D1, 1.0 M sodium phosphate, pH 6.0; D3, 4 M lithium formate/7 M urea, pH 3.5; D4, 4 M ammonium hydroxide/isopropanol (1 : 0.9); and D5, 1.7 M sodium phosphate, pH 6.0. Normal nucleotides were resolved in 180 mM sodium phosphate, pH 6.0, by one-directional PEI-cellulose TLC. DNA adducts and normal nucleotides were detected and quantified by Packard InstantImager.

[4] = tested on: Salmonella typhimurium TA100; details: 250 µM
Experimental: as §1, §2

[5] = tested on: Salmonella typhimurium TA98; details: 250 µM
Experimental: as §1, §2

[6] = tested on: Salmonella typhimurium strains TA97a, TA98, TA100, and TA102; experiment: Ames test, statements over all tester strains; details: for toxicity to Salmonella typhimurium strains / maximum inhibition of mutagenicity: 50–500 μM; for toxicity to Salmonella typhimurium strains: absence of S9; for maximum inhibition of mutagenicity: against sodium azide, MMS, BP, 2AF
Experimental: as §1, §2

[7] = tested on: Salmonella typhimurium TA97a; details: 250 µM
Experimental: as §1, §2

[8] = tested on: Salmonella typhimurium TA102
Experimental: as §1, §2

[9] = tested on: Salmonella typhimurium TA98
Experimental: as §1, §2

[10] = tested on: Salmonella typhimurium TA100
Experimental: as §1, §2

[11] = tested on: Salmonella typhimurium TA97a; details: TA 97a
Experimental: as §1, §2

O=c1oc2c(O)c(O)cc3c(=O)oc4c(O)c(O)cc1c4c23 [Ellagic acid, ellagic acid]
mutagenic activity [1]: No mutagenic activity
inhibition [2]: 74.1%
BP-induced DNA adducts ([3]; 20 μM test compound): 58.6 ± 2.8 DNA adducts/10^8 nucleotides
BP-induced DNA adducts ([3]; 40 μM test compound): 50.9 ± 8.1 DNA adducts/10^8 nucleotides
inhibition of BP-induced DNA adducts [3]: 77%
inhibition [4]: 67.7%
inhibition [5]: 56.3%
toxicity to Salmonella typhimurium strains [6]: No toxicity
maximum inhibition of mutagenicity [6]: up to 90%
inhibition [7]: 44.9%

O=C1O[C@H]2[C@@H]3OC(=O)c4cc(O)c(O)c(O)c4-c4c(O)c(O)c5oc(=O)c6c(c(O)c(O)c7oc(=O)c4c5c76)-c4c(cc(O)c(O)c4O)C(=O)OC[C@H]3OC(O)[C@@H]2OC(=O)c2cc(O)c(O)c(O)c2-c2c1cc(O)c(O)c2O (mixture of isomers) [Punicalagin]
BP-induced DNA adducts ([3]; 20 μM test compound): 42.9 ± 16 DNA adducts/10^8 nucleotides
BP-induced DNA adducts ([3]; 40 μM test compound): 7.2 ± 6.1 DNA adducts/10^8 nucleotides
inhibition of BP-induced DNA adducts [3]: 97%
Number of His+ revertants colonies/plate ([8]; Salmonella typhimurium): 356.0 ± 10.4 colonies/plate
Number of His+ revertants colonies/plate ([8]; TA 102, 50 μM alone (negative control), 2AF tables): 320.0 ± 21.9 colonies/plate
Number of His+ revertants colonies/plate ([8]; TA 102, 50 μM alone (negative control), BP tables): 320.0±21.9 colonies/plate
Number of His+ revertants colonies/plate ([8]; TA 102, 50 μM alone (negative control), MMS tables): 292.0 ± 7.7 colonies/plate
Number of His+ revertants colonies/plate ([8]; TA 102, 50 μM alone (negative control), NaN3 tables): 306.7 ± 13.3 colonies/plate
Number of His+ revertants colonies/plate ([8]; TA 102, 100 μM alone (negative control), 2AF tables): 341.0 ± 18.3 colonies/plate
Number of His+ revertants colonies/plate ([8]; TA 102, 100 μM alone (negative control), BP tables): 341.0 ± 18.3 colonies/plate
Number of His+ revertants colonies/plate ([8]; TA 102, 100 μM alone (negative control), MMS tables): 278.0 ± 12.8 colonies/plate
Number of His+ revertants colonies/plate ([8]; TA 102, 100 μM alone (negative control), NaN3 tables): 275.3 ± 22.1 colonies/plate
Number of His+ revertants colonies/plate ([8]; TA 102, 250 μM alone (negative control), BP tables): 356.0 ± 10.4 colonies/plate
Number of His+ revertants colonies/plate ([8]; TA 102, 250 μM alone (negative control), MMS tables): 255.0 ± 13.2 colonies/plate
Number of His+ revertants colonies/plate ([8]; TA 102, 250 μM alone (negative control), NaN3 tables): 250.0 ± 22.9 colonies/plate
Number of His+ revertants colonies/plate ([8]; TA 102, 500 μM alone (negative control), 2AF tables): 358.0 ± 19.9 colonies/plate
Number of His+ revertants colonies/plate ([8]; TA 102, 500 μM alone (negative control), BP tables): 358.0 ± 19.9 colonies/plate
Number of His+ revertants colonies/plate ([8]; TA 102, 500 μM alone (negative control), MMS tables): 254.0 ± 14.3 colonies/plate
Number of His+ revertants colonies/plate ([8]; TA 102, 500 μM alone (negative control), NaN3 tables): 231.7 ± 24.8 colonies/plate
Number of His+ revertants colonies/plate ([9]; Salmonella typhimurium): 31.0 ± 1.7 colonies/plate
Number of His+ revertants colonies/plate ([9]; TA 98, 50 μM alone (negative control), 2AF tables): 40.7 ± 2.9 colonies/plate
Number of His+ revertants colonies/plate ([9]; TA 98, 50 μM alone (negative control), BP tables): 40.7 ± 2.9 colonies/plate
Number of His+ revertants colonies/plate ([9]; TA 98, 50 μM alone (negative control), MMS tables): 42.3 ± 1.8 colonies/plate
Number of His+ revertants colonies/plate ([9]; TA 98, 50 μM alone (negative control), NaN3 tables): 42.3 ± 1.8 colonies/plate
Number of His+ revertants colonies/plate ([9]; TA 98, 100 μM alone (negative control), 2AF tables): 36.3 ± 1.8 colonies/plate
Number of His+ revertants colonies/plate ([9]; TA 98, 100 μM alone (negative control), BP tables): 36.3 ± 1.8 colonies/plate
Number of His+ revertants colonies/plate ([9]; TA 98, 100 μM alone (negative control), MMS tables): 35.7 ± 1.8 colonies/plate
Number of His+ revertants colonies/plate ([9]; TA 98, 100 μM alone (negative control), NaN3 tables): 35.7 ± 1.8 colonies/plate
Number of His+ revertants colonies/plate ([9]; TA 98, 250 μM alone (negative control), BP tables): 31.0 ± 1.7 colonies/plate
Number of His+ revertants colonies/plate ([9]; TA 98, 250 μM alone (negative control), MMS tables): 30.0 ± 1.2 colonies/plate
Number of His+ revertants colonies/plate ([9]; TA 98, 250 μM alone (negative control), NaN3 tables): 30.0 ± 1.2 colonies/plate
Number of His+ revertants colonies/plate ([9]; TA 98, 500 μM alone (negative control), 2AF tables): 22.3 ± 1.8 colonies/plate
Number of His+ revertants colonies/plate ([9]; TA 98, 500 μM alone (negative control), BP tables): 22.3 ± 1.8 colonies/plate
Number of His+ revertants colonies/plate ([9]; TA 98, 500 μM alone (negative control), MMS tables): 27.3 ± 2.0 colonies/plate
Number of His+ revertants colonies/plate ([9]; TA 98, 500 μM alone (negative control), NaN3 tables): 27.3 ± 2.0 colonies/plate
Number of His+ revertants colonies/plate ([10]; Salmonella typhimurium): 175.3 ± 14.3 colonies/plate
Number of His+ revertants colonies/plate ([10]; TA 100, 50 μM alone (negative control), 2AF tables): 136.0 ± 11.7 colonies/plate
Number of His+ revertants colonies/plate ([10]; TA 100, 50 μM alone (negative control), BP tables): 136.0 ± 11.7 colonies/plate
Number of His+ revertants colonies/plate ([10]; TA 100, 50 μM alone (negative control), MMS tables): 189.7 ± 12.0 colonies/plate
Number of His+ revertants colonies/plate ([10]; TA 100, 50 μM alone (negative control), NaN3 tables): 189.7 ± 12.0 colonies/plate
Number of His+ revertants colonies/plate ([10]; TA 100, 100 μM alone (negative control), 2AF tables): 162.7 ± 15.0 colonies/plate
Number of His+ revertants colonies/plate ([10]; TA 100, 100 μM alone (negative control), BP tables): 162.7 ± 15.0 colonies/plate
Number of His+ revertants colonies/plate ([10]; TA 100, 100 μM alone (negative control), MMS tables): 181.0 ± 7.4 colonies/plate
Number of His+ revertants colonies/plate ([10]; TA 100, 100 μM alone (negative control), NaN3 tables): 181.0 ± 7.4 colonies/plate
Number of His+ revertants colonies/plate ([10]; TA 100, 250 μM alone (negative control), BP tables): 175.3 ± 14.3 colonies/plate
Number of His+ revertants colonies/plate ([10]; TA 100, 250 μM alone (negative control), MMS tables): 165.3 ± 5.4 colonies/plate
Number of His+ revertants colonies/plate ([10]; TA 100, 250 μM alone (negative control), NaN3 tables): 165.3 ± 5.4 colonies/plate
Number of His+ revertants colonies/plate ([10]; TA 100, 500 μM alone (negative control), 2AF tables): 191.0 ± 15.0 colonies/plate
Number of His+ revertants colonies/plate ([10]; TA 100, 500 μM alone (negative control), BP tables): 191.0 ± 15.0 colonies/plate
Number of His+ revertants colonies/plate ([10]; TA 100, 500 μM alone (negative control), MMS tables): 187.7 ± 9.8 colonies/plate
Number of His+ revertants colonies/plate ([10]; TA 100, 500 μM alone (negative control), NaN3 tables): 187.7 ± 9.8 colonies/plate
toxicity to Salmonella typhimurium strains [6]: No toxicity
inhibition at 500 µM ([6]; Salmonella enterica, TYPHIMURIUM, read-out: inhibition of 2AF- and BP-induced mutagenicity (range over strains)): 76.7 to 85%
mutagenic activity ([6]; TA97a, TA98, TA100, TA102, with or without S9, plate incorporation assay): No mutagenic activity
maximum inhibition of mutagenicity [6]: up to 90%
Number of His+ revertants colonies/plate ([11]; 50 μM alone (negative control), 2AF tables): 132.3 ± 8.8 colonies/plate
Number of His+ revertants colonies/plate ([11]; 50 μM alone (negative control), BP tables): 132.3 ± 8.8 colonies/plate
Number of His+ revertants colonies/plate ([11]; 50 μM alone (negative control), MMS tables): 141.3 ± 5.2 colonies/plate
Number of His+ revertants colonies/plate ([11]; 50 μM alone (negative control), NaN3 tables): 141.3 ± 5.2 colonies/plate
Number of His+ revertants colonies/plate ([11]; 100 μM alone (negative control), 2AF tables): 158.0 ± 7.4 colonies/plate
Number of His+ revertants colonies/plate ([11]; 100 μM alone (negative control), BP tables): 158.0 ± 7.4 colonies/plate
Number of His+ revertants colonies/plate ([11]; 100 μM alone (negative control), MMS tables): 153.7 ± 9.2 colonies/plate
Number of His+ revertants colonies/plate ([11]; 100 μM alone (negative control), NaN3 tables): 153.7 ± 9.2 colonies/plate
Number of His+ revertants colonies/plate ([11]; 250 μM alone (negative control), 2AF tables): 165.7 ± 10.9 colonies/plate
Number of His+ revertants colonies/plate ([11]; 250 μM alone (negative control), BP tables): 165.7 ± 10.9 colonies/plate
Number of His+ revertants colonies/plate ([11]; 250 μM alone (negative control), MMS tables): 158.3 ± 7.1 colonies/plate
Number of His+ revertants colonies/plate ([11]; 250 μM alone (negative control), NaN3 tables): 158.3 ± 7.1 colonies/plate
Number of His+ revertants colonies/plate ([11]; 500 μM alone (negative control), 2AF tables): 188.0 ± 9.5 colonies/plate
Number of His+ revertants colonies/plate ([11]; 500 μM alone (negative control), BP tables): 188.0 ± 9.5 colonies/plate
Number of His+ revertants colonies/plate ([11]; 500 μM alone (negative control), MMS tables): 174.0 ± 6.4 colonies/plate
Number of His+ revertants colonies/plate ([11]; 500 μM alone (negative control), NaN3 tables): 174.0 ± 6.4 colonies/plate

Reference: publication PMC4052943 (BioMed Research International, 2014)
